Laboratory results from patent US20110054179A1, “MMP-2 AND/OR MMP-9 INHIBITOR” (priority 2008, published 2011).

How the values were obtained:
[1] = test system: elastase-induced lung injury; assay: Rabbit model of elastase-induced lung injury: lung histology (alveolar destruction, airway subepithelial fibrotic changes); assay type: in vivo
Text: Rabbits were divided into three groups (n=10 animals/group). Two hundred U/kg of porcine pancreatic elastase (PPE) was intratracheally administered into the lungs of the animals in the Vehicle and the Compound A group. The animals in the Sham group was intratracheally administered the same volume of saline instead of PPE. The rabbits were dissected 28 days after PPE administration. The lung tissue of each rabbit was fixed in formalin to prepare histological sections thereof. Two hours prior to the administration of PPE, Vehicle (0.5% tragacanth) or Compound A (10 mg/kg) was orally administered to the rabbits in the Vehicle and the Compound A group, respectively; from the next day, the oral administration of Vehicle or Compound A was continued once a day, 5 days a week until the end of the experiment. The histological sections were immunohistochemically stained using respective antibodies against MMP-2 or MMP-9. Then, under the microscope, the extent of MMP-2 and MMP-9 expression was evaluated, and expressed as a score. The extent of the fibrotic changes in the airway subepithelial region and the extent of alveolar destruction were also observed.

[2] = test system: bleomycin- or asbestos-induced lung fibrosis; details: bleomycin- or asbestos-induced lung fibrosis animal model; cited from earlier work
[3] = 28 days after PPE, 10 mg/kg oral, vs. Vehicle group

CCOc1ccc(-c2nc(-c3cccc(C(=O)O)n3)cs2)cc1OCC [Compound A, 6-[2-(3,4-diethoxyphenyl)thiazol-4-yl]pyridine-2-carboxylic acid]
Alveolar Mean Linear Intercept (Average ± Standard deviation) ([1]; 28 days after PPE 200 U/kg intratracheal, 10 mg/kg oral once a day, 5 days a week, p<0.01 vs. Vehicle): 72.8 ± 2.6 μm ##
alveolar destruction [1, 3]: significantly suppressed
thickening of the airway subepithelial layer resulted from fibrotic changes [1, 3]: alleviated

CNC(=O)[C@H](Cc1c[nH]c2ccccc12)NC(=O)[C@@H](CC(=O)NO)CC(C)C [GM6001]
increase in MMP activity and the number of white blood cell infiltrated in the bronchoalveolar lavage fluid [2]: suppressed
lung fibrosis in the histological and biochemical aspects [2]: suppressed
